One series deals with hERG ion channels (Homo sapiens, UniProt Q12809). Conditions: HEK293, CHO; Mathur, A. et al, 2015; cited from earlier work.
For series [1], the system named is CardioSlice constructs.
Description: All chemicals were dissolved in distilled water to make stock solutions, and serial dilutions were made in RPMI (Invitrogen) culture medium. To test changes in the β-adrenergic response, 1 μM isoproterenol was injected to the bioreactor circuit through the luer injection port (Inycom). For cholinergic stimulation, 10 μM carbachol was injected, and sotalol was added at 10 μM to evaluate the blockade of hERG current (Braam, S. R. et al, 2013). Spontaneous activity of cardiac constructs was recorded as baseline period. Cardiac constructs were treated with pharmacological agents during 10 min for immediate analysis, followed by 5 min washout for isoproterenol and carbachol, and 15 min for sotalol.
Electrocardiogram (ECG)-like signals were acquired through the three electrodes configuration built in the custom-made cell culture chamber and using an advanced transducer amplifier. The gold electrode acted as internal reference, and electrical activity of cardiac macrotissues was acquired using the gold and graphite electrodes. In particular, “Amplifier I” acquires activity between: “Graphite+ and Reference”; and “Amplifier II” acquires activity between: “Graphite+ and Graphite−” (FIG. 8). The obtained ECG-like signal is generated by the sum of the synchronized action potentials of all cardiomyocytes. Its shape is similar to regular surface ECG signals for humans, including the presence of the QRS complex and T wave (FIG. 4a). […] ECG-like signal recordings were monitored and stored in a computer using the AcqKnowledge software v.4.1 (BIOPAC, Santa Barbara, Calif., USA), and were analyzed with MATLAB (v. R2014b, Natick, Mass., USA). ECG-like signals were recorded at a sampling frequency of 12.5 kHz, and were filtered and decimated at a sampling rate of 500 Hz.
Recorded ECG-like signals were bandpass filtered (zero-phase fourth-order Butterworth filter with cut-off frequencies of 0.2 and 125 Hz), to use the main bandwidth of the classical electrocardiographic studies. […] Beat-to-beat fiducial points were detected and then signal averaging techniques were applied to estimate the main pattern of each ECG-like signal, enabling analysis and interpretation of QRS complex, T wave and QT interval (FIG. 4a and FIG. 5c).
During the experiments involving drug treatment, instantaneous beat rate expressed as beats per minute (bpm) was calculated over ECG-like signals, generated in both control and CardioSlice constructs at baseline and after drug application. Beat rate was assessed by measuring the RR interval, which is the time elapsing between two consecutive R waves in the electrocardiogram. Relative beat rate to baseline was calculated to evaluate the behavior of cardioactive drug effects.
Series [2] deals with Control constructs (non-stimulated human cardiac macrotissues). Briefly: ECG-like signal recording of non-stimulated human cardiac macrotissues under drug treatment. The class given is cell-based. Conditions: 10 μM sotalol, 10 min treatment, day 14 of culture. An excerpt: Isoproterenol, carbachol and sotalol were purchased from Sigma-Aldrich.
Series [3] concerns CardioSlice constructs. The experiment in a line: Chronotropic/contractile response by video area-oscillation analysis (custom MATLAB program). It counts as cell-based, human. Here is the method:
FIG. 11. Chronotropic responses of human cardiac macrotissues to the proarrhythmic drug sotalol. Changes in the beat rate were analyzed through custom MATLAB program at different incubation times (from 0 min to 40 min). The area in pixels of each construct was obtained, and its oscillation was represented over time (relative to the highest number of pixels recorded). (a) Sotalol effects on non-stimulated cardiac constructs (Control). (b) Sotalol effects on electrically stimulated cardiac constructs (CardioSlice).
Contractile function of cardiac macrotissues in spontaneous beating and in response to electric field stimulation was assessed in a set-up equivalent to one previously described (Tandon, N. et al, 2009; Tandon, N. et al, 2011). […] The space between the electrodes was filled with Tyrode's salts solution (Sigma-Aldrich Quimica), and cardiac macrotissues were imaged and video recorded using a Stereo Microscope Leica MZ10F (Leica Microsystems) with a DFC4025C Digital Microscope Camera (Leica Microsystems). […] To measure the amplitude of contraction of each cardiac macrotissue, spontaneous beating of the constructs was recorded for at least 10 s. Then, the Fractional Area Change (FAC) of 10 beats was calculated using a custom MATLAB program (v. R2014b, Natick, Mass., USA) as previously described (Tandon, N. et al., 2009). […]

Molecules are shown by their SMILES.

hERG ion channels, sequence (Q12809 whole entry): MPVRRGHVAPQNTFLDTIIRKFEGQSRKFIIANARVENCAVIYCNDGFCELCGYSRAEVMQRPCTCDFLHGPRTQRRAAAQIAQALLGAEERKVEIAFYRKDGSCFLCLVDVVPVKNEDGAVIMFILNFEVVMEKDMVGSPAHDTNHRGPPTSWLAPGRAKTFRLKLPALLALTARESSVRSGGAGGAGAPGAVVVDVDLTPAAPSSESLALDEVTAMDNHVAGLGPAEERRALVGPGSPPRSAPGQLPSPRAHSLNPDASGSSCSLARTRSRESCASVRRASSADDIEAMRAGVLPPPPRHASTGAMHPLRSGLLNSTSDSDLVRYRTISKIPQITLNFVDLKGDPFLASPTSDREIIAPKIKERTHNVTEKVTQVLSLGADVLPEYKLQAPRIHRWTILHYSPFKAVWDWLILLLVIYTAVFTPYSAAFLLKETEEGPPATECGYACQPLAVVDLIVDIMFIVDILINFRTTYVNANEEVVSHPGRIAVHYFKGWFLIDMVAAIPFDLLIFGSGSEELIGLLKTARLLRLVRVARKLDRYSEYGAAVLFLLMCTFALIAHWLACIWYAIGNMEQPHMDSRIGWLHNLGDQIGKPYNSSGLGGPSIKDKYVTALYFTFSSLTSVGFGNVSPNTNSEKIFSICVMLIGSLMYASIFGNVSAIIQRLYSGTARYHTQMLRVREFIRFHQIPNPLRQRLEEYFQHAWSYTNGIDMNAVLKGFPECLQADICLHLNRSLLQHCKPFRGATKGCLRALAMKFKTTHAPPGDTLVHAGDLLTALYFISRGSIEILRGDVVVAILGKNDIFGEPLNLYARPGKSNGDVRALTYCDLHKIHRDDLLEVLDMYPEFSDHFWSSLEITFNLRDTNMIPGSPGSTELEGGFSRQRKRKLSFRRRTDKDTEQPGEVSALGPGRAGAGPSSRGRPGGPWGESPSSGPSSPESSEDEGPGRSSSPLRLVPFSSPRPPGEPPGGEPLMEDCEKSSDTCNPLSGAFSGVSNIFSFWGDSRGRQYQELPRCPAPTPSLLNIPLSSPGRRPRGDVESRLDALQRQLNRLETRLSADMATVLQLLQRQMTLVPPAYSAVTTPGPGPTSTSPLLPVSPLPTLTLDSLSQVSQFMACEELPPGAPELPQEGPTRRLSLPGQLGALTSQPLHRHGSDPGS

On to `COc1cc2nc(N(C)CCCNC(=O)C3CCCO3)nc(N)c2cc1OC` (stereo not drawn) [alfuzosin], for which the “outcome of hERG safety assay versus actual cardiac safety” value on hERG ion channels is “false negatives”.
As to `C[N+](C)(C)CCOC(N)=O` [carbachol], the beating frequency result with CardioSlice constructs [1] (10 μM carbachol, 10 min incubation, relative to baseline) is “statistically significant decrease”.
Consider `CC(C)NCC(O)c1ccc(O)c(O)c1` (stereo not drawn) [isoproterenol], for which the RR intervals entry in the series with CardioSlice constructs [1] (1 μM isoproterenol, 10 min incubation) is given as “decreased”. Also, the beating rate entry in the series on CardioSlice constructs [1] (1 μM isoproterenol, 10 min incubation, relative to baseline) is “statistically significant increment”.
On to `CC(C)NCC(O)c1ccc(NS(C)(=O)=O)cc1` (stereo not drawn) [sotalol], for which, in series [2], the beating frequency entry is “random increases and decreases”; the “morphology of ECG-like signals” value is “no alteration”. Further, the “chronotropic response (beat rate changes)” value in the series on CardioSlice constructs [3] (sotalol, incubation times from 0 min to 40 min) is “a negative chronotropic effect can be observed, followed by a progressive emergence of cardiac arrhythmias”. Also, in the series on CardioSlice constructs [3] (sotalol-treated CardioSlice constructs), the “contractile patterns (mechanical level)” value was “dyssynchronous contractile patterns”. Further, the “increase of the QT interval (prolongation)” value with CardioSlice constructs [1] (human, 10 μM) was “greater than 20%”.

These data come from US20190365951A1, “HUMAN CARDIAC TISSUE CONSTRUCT, RELATED METHODS AND USES” (FUNDACIÓ INSTITUTE DE BIOENGINYERIA DE CATALUNYA (IBEC), priority 2018, published 2019).
